Measurements from patent publication US20190282590A1, “MEDICAMENT FOR TREATMENT AND/OR PROPHYLACTIC TREATMENT OF BREAST CANCER” (HAKMED AB, priority 2016, published 2019).

How the values were obtained:
[1] = type: in vivo
Description: Since July 2005 369 cases of MBC were identified from the Swedish Cancer Register and each case was matched to five controls (n=[…]) from the general population of the same age and domicile. Medicines with documented side effects of hormonal imbalance or gynecomastia were collected from the Prescribed Drug Register in operation since July 2005. Drug exposure was followed both for cases and controls until the cancer diagnosis or death of the case. Cases and controls with a diagnosis of prostate cancer were excluded. The data were mainly analyzed with conditional logistic regression and Cox regression.
Cox regression and nested case-control analysis were used in analysis of the ever-use variable of any of the included medicines, after the exclusion phases (described below), as well as after the grouping phase and generated study design-specific hazard ratios (HR) and 95% confidence intervals (CI). P-values less than 0.05 were considered statistically significant. All processing of the data and statistical analysis was made using R programming for statistical computing and ended with the effectuation of conditional logistic regression, Cox regression and nested case-control. Using multiple statistical methods provided additional statistical certainty.
In this second line of statistical analysis, the match sets created by Statistics Sweden were kept, using the ID number of the case to connect the five matched controls to each case. All medical use after the time of diagnosis of the case was excluded, which applied also to the controls, meaning that the matched control's medical usage after the date of diagnosis of the case was censored using the predefined match sets. All subjects were classified as non-users until the date of the first prescription of one of the included medicines. […]
The first prescribed medicine for each individual with recorded medical use was selected, since this was likely to be the medicine each individual had used for the longest period of time. […]

[2] = except in skeletal muscle tissue; cited from earlier work
[3] = prevention mainly limited to less severe prostate cancer; cited from earlier work
[4] = cited from earlier work

COc1cc2nc(N(C)CCCNC(=O)C3CCCO3)nc(N)c2cc1OC (stereo not shown) [Alfuzosin]
Association of medication use with risk of MBC (in words) [1]: significant correlation to increased risk of MBC

C[C@]12CCC(=O)C[C@@H]1CC[C@@H]1[C@@H]2CC[C@]2(C)[C@@H](O)CC[C@@H]12 [DHT, dihydrotestosterone]
Potency relative to testosterone or other androgens [2]: 3-5 times

COc1cc2nc(N3CCN(C(=O)C4CCCO4)CC3)nc(N)c2cc1OC (stereo not shown) [Terazosin]
Association of medication use with risk of MBC (in words) [1]: significant correlation to increased risk of MBC

C[C@]12C=CC(=O)N[C@@H]1CC[C@@H]1[C@@H]2CC[C@]2(C)[C@@H](C(=O)Nc3cc(C(F)(F)F)ccc3C(F)(F)F)CC[C@@H]12 [dutasteride, (5α,17β)-N-{2,5-Bis(trifluoromethyl)phenyl}-3-oxo-4-azaandrost-1-ene-17-carboxamide]
Effect on prostate cancer (in words) [3]: a better prognosis has been shown | Preventive effect on MBC (in words) ([1]; register study, 5-ARI users): preventive effect was strongest | Adverse effects in clinical studies ([4]; 5 mg daily for 6 months, patients, compared with therapeutic dose 0.5 mg): no additional adverse effects | Safety of single daily doses ([4]; up to 40 mg/day (80 times the therapeutic dose) for 7 days, healthy volunteers): without significant safety concerns
